Experimental data taken from patent US20160102073A1, “2-HYDROXYMETHYL-SUBSTITUTED OREXIN RECEPTOR ANTAGONISTS” (MERCK SHARP & DOHME CORP., priority 2013, published 2016).

Legend:
[1] = molecular target: T1, human orexin-2 receptor (hOX2R) (Homo sapiens, UniProt O43614); assay: FLIPR Ca2+ Flux Assay, CHO cells expressing hOX2R; assay type: cell-based; settings: agonist 70 pM Ala-6,12 orexin-A
T1 construct: expressed in transfected cells; host or cells: Chinese hamster ovary (CHO) cells, grown under G418 selection
T1 sequence (O43614 1-444): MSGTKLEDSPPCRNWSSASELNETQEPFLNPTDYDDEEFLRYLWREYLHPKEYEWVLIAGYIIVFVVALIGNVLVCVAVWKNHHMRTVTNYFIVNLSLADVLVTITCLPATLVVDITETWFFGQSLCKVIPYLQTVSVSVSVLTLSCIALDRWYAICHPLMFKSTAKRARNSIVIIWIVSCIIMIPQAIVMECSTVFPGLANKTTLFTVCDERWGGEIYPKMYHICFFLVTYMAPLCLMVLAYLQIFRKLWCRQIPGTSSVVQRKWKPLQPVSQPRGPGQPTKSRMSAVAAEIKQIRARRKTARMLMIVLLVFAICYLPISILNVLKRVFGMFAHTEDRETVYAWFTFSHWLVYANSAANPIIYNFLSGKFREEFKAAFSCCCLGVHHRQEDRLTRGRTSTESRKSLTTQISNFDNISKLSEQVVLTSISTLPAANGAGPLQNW
Procedure: The utility of the compounds in accordance with the present invention as orexin receptor OX1R and/or OX2R antagonists may be readily determined without undue experimentation by methodology well known in the art, including the “FLIPR Ca^2+ Flux Assay” (Okumura et al., Biochem. Biophys. Res. Comm. 280:976-981, 2001). In a typical experiment the OX1 and OX2 receptor antagonistic activity of the compounds of the present invention was determined in accordance with the following experimental method. For intracellular calcium measurements, Chinese hamster ovary (CHO) cells expressing the rat orexin-1 receptor or the human orexin-2 receptor, are grown in Iscove's modified DMEM containing 2 mM L-glutamine, […], 1% hypoxanthine-thymidine supplement, 100 U/ml penicillin, 100 μg/ml streptomycin and 10% heat-inactivated fetal calf serum (FCS). The cells are seeded at 20,000 cells/well into Becton-Dickinson black 384-well clear bottom sterile plates coated with poly-D-lysine. All reagents were from GIBCO-Invitrogen Corp. The seeded plates are incubated overnight at 37° C. and 5% CO2. Ala-6,12 human orexin-A as the agonist is prepared as a 1 mM stock solution in 1% bovine serum albumin (BSA) and diluted in assay buffer (HBSS containing 20 mM HEPES, 0.1% BSA and 2.5 mM probenecid, pH7.4) for use in the assay at a final concentration of 70 pM. Test compounds are prepared as 10 mM stock solution in DMSO, then diluted in 384-well plates, first in DMSO, then assay buffer. On the day of the assay, cells are washed 3 times with 100 μl assay buffer and then incubated for 60 min (37° C., 5% CO2) in 60 μl assay buffer containing 1 μM Fluo-4AM ester, 0.02% pluronic acid, and 1% BSA. The dye loading solution is then aspirated and cells are washed 3 times with 100 μl assay buffer. 30 μl of that same buffer is left in each well. Within the Fluorescent Imaging Plate Reader (FLIPR, Molecular Devices), test compounds are added to the plate in a volume of 25 μl, incubated for 5 min and finally 25 μl of agonist is added. Fluorescence is measured for each well at 1 second intervals for 5 minutes and the height of each fluorescence peak is compared to the height of the fluorescence peak induced by 70 pM Ala-6,12 orexin-A with buffer in place of antagonist. For each antagonist, IC50 value (the concentration of compound needed to inhibit 50% of the agonist response) is determined. Alternatively, compound potency can be assessed by a radioligand binding assay (described in Bergman et. al. Bioorg. Med. Chem. Lett. 2008, 18, 1425-1430) in which the inhibition constant (Ki) is determined in membranes prepared from CHO cells expressing either the OX1 or OX2 receptor. The intrinsic orexin receptor antagonist activity of a compound which may be used in the present invention may be determined by these assays.
Chinese hamster ovary (CHO) cells expressing the human orexin-1 receptor (hOX1R) or the human orexin-2 receptor (hOX2R) were grown in Iscove's modified DMEM containing 2 mM L-glutamine, […], 1% hypoxanthine-thymidine supplement, 100 U/ml penicillin, 100 μg/ml streptomycin and 10% heat-inactivated fetal calf serum (FCS). The cells were seeded at 20,000 cells/well into Becton-Dickinson black 384-well clear bottom sterile plates coated with poly-D-lysine. All reagents were from GIBCO-Invitrogen Corp. The seeded plates were incubated overnight at 37° C. and 5% CO2. Ala-6,12 human orexin-A, used as the agonist, was prepared as a 1 mM stock solution in 1% bovine serum albumin (BSA) and diluted in assay buffer (HBSS containing 20 mM HEPES, 0.1% BSA and 2.5 mM probenecid, pH7.4) for use in the assay at a final concentration of 70 pM. Test compounds were prepared as 10 mM stock solution in DMSO, then diluted in 384-well plates, first in DMSO, then assay buffer. […]

[2] = molecular target: T2, human orexin-1 receptor (hOX1R) (Homo sapiens, UniProt O43613); assay: FLIPR Ca2+ Flux Assay, CHO cells expressing hOX1R; assay type: cell-based; settings: agonist 70 pM Ala-6,12 orexin-A
T2 construct: expressed in transfected cells; host or cells: Chinese hamster ovary (CHO) cells, grown under G418 selection
T2 sequence (O43613 1-425): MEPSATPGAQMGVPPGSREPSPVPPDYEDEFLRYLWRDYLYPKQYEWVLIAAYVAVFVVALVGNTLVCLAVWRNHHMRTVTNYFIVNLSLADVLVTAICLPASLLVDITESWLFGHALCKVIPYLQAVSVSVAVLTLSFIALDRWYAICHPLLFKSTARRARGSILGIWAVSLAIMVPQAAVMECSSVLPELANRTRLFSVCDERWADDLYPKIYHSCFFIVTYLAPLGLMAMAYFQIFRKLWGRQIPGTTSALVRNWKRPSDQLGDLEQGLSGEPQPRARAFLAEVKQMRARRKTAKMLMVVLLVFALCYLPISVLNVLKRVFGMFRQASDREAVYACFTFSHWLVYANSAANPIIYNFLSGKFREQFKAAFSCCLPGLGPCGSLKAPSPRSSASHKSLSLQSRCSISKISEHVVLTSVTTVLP
Procedure: Chinese hamster ovary (CHO) cells expressing the human orexin-1 receptor (hOX1R) or the human orexin-2 receptor (hOX2R) were grown in Iscove's modified DMEM containing 2 mM L-glutamine, […], 1% hypoxanthine-thymidine supplement, 100 U/ml penicillin, 100 μg/ml streptomycin and 10% heat-inactivated fetal calf serum (FCS). The cells were seeded at 20,000 cells/well into Becton-Dickinson black 384-well clear bottom sterile plates coated with poly-D-lysine. All reagents were from GIBCO-Invitrogen Corp. The seeded plates were incubated overnight at 37° C. and 5% CO2. Ala-6,12 human orexin-A, used as the agonist, was prepared as a 1 mM stock solution in 1% bovine serum albumin (BSA) and diluted in assay buffer (HBSS containing 20 mM HEPES, 0.1% BSA and 2.5 mM probenecid, pH7.4) for use in the assay at a final concentration of 70 pM. Test compounds were prepared as 10 mM stock solution in DMSO, then diluted in 384-well plates, first in DMSO, then assay buffer.
On the day of the assay, cells were washed 3× with 100 μl assay buffer and then incubated for 60 minutes (37° C., 5% CO2) in 60 μl assay buffer containing 1 μM Fluo-4AM ester, 0.02% pluronic acid, and 1% BSA. The dye loading solution was then aspirated and cells were washed 3× with 100 μl assay buffer. 30 μl of that same buffer was left in each well. Within the Fluorescent Imaging Plate Reader (FLIPR, Molecular Devices), test compounds were added to the plate in a volume of 25 μl, incubated for 5 minutes, and then 25 μl of agonist was added. Fluorescence was measured for each well at 1 second intervals for 5 minutes, and the height of each fluorescence peak was compared to the height of the fluorescence peak induced by 70 pM of Ala-6,12 orexin-A with buffer in place of test compound.

IC50 [1]	IC50 [2]	Structure (SMILES)
80 nM	93 nM	COc1ccnc(O[C@@H]2CC[C@@H](C)N(C(=O)c3ccccc3-n3nccn3)C2)c1C(C)(C)O (single isomer, unassigned) [Example 28]
30 nM	44.5 nM	C[C@@H]1CC[C@@H](Oc2ncccc2C(C)(C)O)CN1C(=O)c1ccccc1-n1nccn1 [Example 1, 2-(2-{[(3R,6R)-6-Methyl-1-{[2-(2H-1,2,3-triazol-2-yl)phenyl]carbonyl}piperidin-3-yl]oxy}pyridin-3-yl)propan-2-ol]
11 nM	30 nM	C[C@@H]1CC[C@@H](Oc2ncccc2C(C)(C)O)CN1C(=O)c1cc(CF)ccc1-n1nccn1 [Example 2, 2-(2-{[(3R,6R)-1-{[5-(Fluoromethyl)-2-(2H-1,2,3-triazol-2-yl)phenyl]carbonyl}-6-methylpiperidin-3-yl]oxy}pyridin-3-yl)propan-2-ol]
35 nM	189 nM	C[C@@H]1CC[C@@H](Oc2ncccc2C(C)(C)O)CN1C(=O)c1cccc(F)c1-n1nccn1 [Example 3, 2-(2-{[(3R,6R)-1-{[3-fluoro-2-(2H-1,2,3-triazol-2-yl)phenyl]carbonyl}-6-methylpiperidin-3-yl]oxy}pyridin-3-yl)propan-2-ol]
68 nM	425 nM	C[C@@H]1CC[C@@H](Oc2ncccc2C(C)(C)O)CN1C(=O)c1ccc(F)cc1-n1nccn1 [Example 4, 2-(2-{[(3R,6R)-1-{[4-fluoro-2-(2H-1,2,3-triazol-2-yl)phenyl]carbonyl}-6-methylpiperidin-3-yl]oxy}pyridin-3-yl)propan-2-ol]
34 nM	121 nM	C[C@@H]1CC[C@@H](Oc2ncccc2C(C)(C)O)CN1C(=O)c1cc(F)ccc1-n1nccn1 [Example 5, 2-(2-{[(3R,6R)-1-{[5-fluoro-2-(2H-1,2,3-triazol-2-yl)phenyl]carbonyl}-6-methylpiperidin-3-yl]oxy}pyridin-3-yl)propan-2-ol]
66 nM	141 nM	C[C@@H]1CC[C@@H](Oc2ncccc2C(C)(C)O)CN1C(=O)c1cc(Cl)ccc1-n1nccn1 [Example 6, 2-(2-{[(3R,6R)-1-{[5-chloro-2-(2H-1,2,3-triazol-2-yl)phenyl]carbonyl}-6-methylpiperidin-3-yl]oxy}pyridin-3-yl)propan-2-ol]
88 nM	418 nM	C[C@@H]1CC[C@@H](Oc2ncccc2C(C)(C)O)CN1C(=O)c1cc(C#N)ccc1-n1nccn1 [Example 7, 3-{[(2R,5R)-5-{[3-(1-hydroxy-1-methylethyl)pyridin-2-yl]oxy}-2-methylpiperidin-1-yl]carbonyl}-4-(2H-1,2,3-triazol-2-yl)benzonitrile]
70 nM	124 nM	C[C@@H]1CC[C@@H](Oc2ncccc2C(C)(C)O)CN1C(=O)c1ccccc1-c1ccccc1 [Example 8, 2-(2-{[(3R,6R)-1-(biphenyl-2-ylcarbonyl)-6-methylpiperidin-3-yl]oxy}pyridin-3-yl)propan-2-ol]
54 nM	89 nM	C[C@@H]1CC[C@@H](Oc2ncccc2C(C)(C)O)CN1C(=O)c1ccccc1C1CCC1 [Example 9, 2-[2-({(3R,6R)-1-[(2-cyclobutylphenyl)carbonyl]-6-methylpiperidin-3-yl}oxy)pyridin-3-yl]propan-2-ol]
157 nM	435 nM	COc1ccc(C(=O)N2C[C@H](Oc3ncccc3C(C)(C)O)CC[C@H]2C)c(-c2ccccc2)n1 [Example 10, 2-[2-({(3R,6R)-1-[(6-methoxy-2-phenylpyridin-3-yl)carbonyl]-6-methylpiperidin-3-yl}oxy)pyridin-3-yl]propan-2-ol]
41 nM	148 nM	C[C@@H]1CC[C@@H](Oc2ncccc2C(C)(C)O)CN1C(=O)c1sccc1-n1nccn1 [Example 11, 2-(2-{[(3R,6R)-6-methyl-1-{[3-(2H-1,2,3-triazol-2-yl)thiophen-2-yl]carbonyl}piperidin-3-yl]oxy}pyridin-3-yl)propan-2-ol]
104 nM	265 nM	C[C@@H]1CC[C@@H](Oc2ncccc2C(C)(C)O)CN1C(=O)c1ccccc1N1CCCC1 [Example 12, 2-[2-({(3R,6R)-6-methyl-1-[(2-pyrrolidin-1-ylphenyl)carbonyl]piperidin-3-yl}oxy)pyridin-3-yl]propan-2-ol]
34 nM	94 nM	C[C@@H]1CC[C@@H](Oc2ncccc2C(C)(C)O)CN1C(=O)c1ccccc1C1CC1 [Example 13, 2-[2-({(3R,6R)-1-[(2-cyclopropylphenyl)carbonyl]-6-methylpiperidin-3-yl}oxy)pyridin-3-yl]propan-2-ol]
49 nM	475 nM	C[C@@H]1CC[C@@H](Oc2ncccc2C(C)(C)O)CN1C(=O)c1ccc(F)cc1C1CC1 [Example 14, 2-[2-({(3R,6R)-1-[(2-cyclopropyl-4-fluorophenyl)carbonyl]-6-methylpiperidin-3-yl}oxy)pyridin-3-yl]propan-2-ol]
